Assays:
Type in all cases: cell-based
HTT mRNA = experiment: Splicing assay (RT-qPCR) of HTT mRNA alternative junction (AJ) and canonical junction (CJ); details: A673 or K562 cells, 24 hours; for IC50: decrease in CJ mRNA, read-out: HTT CJ IC50; for AC50: increase in AJ mRNA, read-out: HTT AJ AC50
Experimental: Compounds described herein were used to modulate RNA transcript abundance in cells. The expression of a target mRNA was measured by detecting the formation of an exon-exon junction in the canonical transcript (CJ). A compound mediated exon-inclusion event was detected by observing an increase in formation of a new junction with an alternative exon (AJ). Real-time qPCR assays were used to detect these splicing switches and interrogate the potency of various compounds towards different target genes. A high-throughput real time quantitative PCR (RT-qPCR) assay was developed to measure these two isoforms of the mRNA (CJ and AJ) for an exemplary gene, HTT, together with a control housekeeping gene, GAPDH or GUSB or PPIA, used for normalization. Briefly, the A673 or K562 cell line was treated with various compounds described herein (e.g., compounds of Formula (I) or (II)). After treatment, the levels of the HTT mRNA targets were determined from each sample of cell lysate by cDNA synthesis followed by qPCR.
Materials: • Cells-to-CT 1-step kit: ThermoFisher A25602, Cells-to-CT lysis reagent: ThermoFisher 4391851C, TagMan™ Fast Virus 1-Step Master Mix: ThermoFisher 4444436 • GAPDH: VIC-PL, ThermoFisher 4326317E (Assay: Hs99999905_ml)—used for K562/suspension cell lines • GUSB: VIC-PL, ThermoFisher 4326320E (Assay: Hs99999908 ml)—used for K562/suspension cell lines • PPIA: VIC-PL, ThermoFisher 4326316E (Assay: Hs99999904 ml)—used for A673/adherent cell lines
The A673 cell line was cultured in DMEM with 10% FBS. Cells were diluted with full growth media and plated in a 96-well plate (15,000 cells in 100 ul media per well). The plate was incubated at 37° C. with 5% CO2 for 24 hours to allow cells to adhere. An 11-point 3-fold serial dilution of the compounds was made in DMSO then diluted in media in an intermediate plate. Compounds were transferred from the intermediate plate to the cell plate with the top dose at a final concentration of 10 uM in the well. Final DMSO concentration was kept at or below 0.25%. The cell plate was returned to the incubator at 37° C. with 5% CO2 for an additional 24 hours.
The K562 cell line was cultured in IMDM with 10% FBS. For K562, cells were diluted with full growth media and plated in either a 96-well plate (50,000 cells in 50 uL media per well) or a 384-well plate (8,000-40,000 cells in 45 uL media per well). An 11-point 3-fold serial dilution of the compounds were made in DMSO then diluted in media in an intermediate plate. Compound was transferred from the intermediate plate to the cell plate with the top dose at a final concentration of 10 uM in the well. Final DMSO concentration was kept at or below 0.25%. Final volume was 100 uL for 96-well plate and 50 uL for 384-well plate. The cell plate was then placed in an incubator at 37° C. with 5% CO2 for 24 hours.
The cells were then gently washed with 50 uL-100 uL cold PBS before proceeding to addition of lysis buffer. 30 uL-50 uL of room temperature lysis buffer with DNAse I (and optionally RNAsin) was added to each well. Cells were shaken/mixed thoroughly at room temperature for 5-10 minutes for lysis to take place and then 3 uL-5 uL of room temperature stop solution was added and wells were shaken/mixed again. After 2-5 minutes, the cell lysate plate was transferred to ice for RT-qPCR reaction setup. The lysates could also be frozen at −80° C. for later use.
In some cases, a direct lysis buffer was used. An appropriate volume of 3X lysis buffer (10 mM Tris, 150 mM NaCl, 1.5%-2.5% Igepal and 0.1-1 U/uL RNAsin, pH 7.4) was directly added to either K562 or A673 cells in media and mixed by pipetting 3 times. The plates were then incubated at room temperature with shaking/rocking for 20-50 minutes to allow for lysis to take place. After this time, the cell lysate plate was transferred to ice to set up for the RT-qPCR reactions. The lysates could also be frozen at −80° C. for later use. […]

Target C CJ mRNA = experiment: Gene panel canonical junction qPCR splicing assay, Target C; details: Table 4, read-out: Target C IC50 (decrease in CJ mRNA levels)
Experimental: (§1) Compounds described herein were used to modulate RNA transcript abundance in cells. The expression of a target mRNA was measured by detecting the formation of an exon-exon junction in the canonical transcript (CJ). A compound mediated exon-inclusion event was detected by observing an increase in formation of a new junction with an alternative exon (AJ). Real-time qPCR assays were used to detect these splicing switches and interrogate the potency of various compounds towards different target genes. A high-throughput real time quantitative PCR (RT-qPCR) assay was developed to measure these two isoforms of the mRNA (CJ and AJ) for an exemplary gene, HTT, together with a control housekeeping gene, GAPDH or GUSB or PPIA, used for normalization. Briefly, the A673 or K562 cell line was treated with various compounds described herein (e.g., compounds of Formula (I) or (II)). After treatment, the levels of the HTT mRNA targets were determined from each sample of cell lysate by cDNA synthesis followed by qPCR. The data analysis was performed by first determining the ΔCt vs the housekeeper gene. This ΔCt was then normalized against the DMSO control (ΔΔCt) and converted to RQ (relative quantification) using the 2^(−ΔΔCt) equation. The RQ were then converted to a percentage response by arbitrarily setting an assay window of 3.5 ΔCt for HTT-CJ and an assay window of 9 ΔCt for HTT-AJ. […] The percentage response was then fitted to the 4 parametric logistic equation to evaluate the concentration dependence of compound treatment. The increase in AJ mRNA is reported as AC50 (compound concentration having 50% response in AJ increase) while the decrease in CJ mRNA levels is reported as IC50 (compound concentration having 50% response in CJ decrease). Additional studies were carried out for a larger panel of genes using the protocol provided above. The junction between flanking upstream and downstream exons was used to design canonical junction qPCR assays. At least one of the forward primer, reverse primer or the CY5-labeled 5′ nuclease probe (with 3′ quencher such as ZEN/Iowa Black FQ) was designed to overlap with the exon junction to capture the CJ mRNA transcript. BLAST was used to confirm the specificity of the probeset and parameters such as melting temperature, GC content, amplicon size, and primer dimer formation are considered during their design. Data for the decrease in CJ mRNA levels for three exemplary genes (HTT, SMN2, and Target C) analyzed in this panel are reported as IC50 (compound concentration having 50% response in CJ decrease).

HTT CJ mRNA = experiment: Gene panel canonical junction qPCR splicing assay, HTT; details: Table 4, read-out: HTT IC50 (decrease in CJ mRNA levels)
Experimental: as §1

SMN2 CJ mRNA = experiment: Gene panel canonical junction qPCR splicing assay, SMN2; details: Table 4, read-out: SMN2 IC50 (decrease in CJ mRNA levels)
Experimental: as §1

SMILES | IC50 (HTT mRNA) | AC50 (HTT mRNA) | IC50 (Target C CJ mRNA) | IC50 (HTT CJ mRNA) | IC50 (SMN2 CJ mRNA)
Cn1cc2cc(-c3ccc4nc(OC5CNC5)ccc4n3)c(O)cc2n1 [Compound 159] | 1000 to 10000 nM | 1000 to 10000 nM | 1000 to 10000 nM | 1000 to 10000 nM | 100 to 1000 nM
Cc1nc(-c2ccc3nc(N4CCC(NC(C)(C)C)C4)ccc3n2)cc2cn(C)nc12 (stereo not drawn) [Compound 208] | > 10000 nM | > 10000 nM | > 10000 nM | > 10000 nM | 1000 to 10000 nM
Cc1nc2cc(O)c(-c3ccc4nc(N5CCC(NC(C)(C)C)C5)ccc4n3)cc2o1 (stereo not drawn) [Compound 175, 6-{6-[3-(tert-butylamino)pyrrolidin-1-yl]-1,5-naphthyridin-2-yl}-2-methyl-1,3-benzoxazol-5-ol] | < 100 nM | < 100 nM | < 100 nM | < 100 nM | < 100 nM
Cn1cc2cc(-c3ccc4nc(C5CCNCC5)ccc4n3)c(O)cc2n1 [Compound 100, 2-methyl-5-[6-(piperidin-4-yl)-1,5-naphthyridin-2-yl]indazol-6-ol] | < 100 nM | 100 to 1000 nM | < 100 nM | < 100 nM | < 100 nM
Cc1nc2cc(O)c(-c3ccc4nc(N5CC[C@@H](NC6CC6)C5)ccc4n3)cc2o1 (single isomer, unassigned) [Compound 212, 6-{6-[3-(cyclopropylamino)pyrrolidin-1-yl]-1,5-naphthyridin-2-yl}-2-methyl-1,3-benzoxazol-5-ol] | < 100 nM | < 100 nM | 100 to 1000 nM | < 100 nM | < 100 nM
Cc1nc2cc(O)c(-c3ccc4nc(N5CCC(NC6CCC6)C5)ccc4n3)cc2o1 (single isomer, unassigned) [Compound 230, 6-{6-[3-(cyclobutylamino)pyrrolidin-1-yl]-1,5-naphthyridin-2-yl}-2-methyl-1,3-benzoxazol-5-ol] | < 100 nM | < 100 nM | 100 to 1000 nM | < 100 nM | < 100 nM
Cc1cn2cc(-c3ccc4nc(C5CCNCC5)ccc4n3)c(O)cc2n1 [Compound 149, 2-methyl-6-[6-(piperidin-4-yl)-1,5-naphthyridin-2-yl]imidazo[1,2-a]pyridin-7-ol] | > 10000 nM | > 10000 nM | > 10000 nM | > 10000 nM | 100 to 1000 nM
Cc1nc2cc(O)c(-c3ccc4nc(N5CC[C@H](NC6(C)CC6)C5)ccc4n3)cc2o1 (single isomer, unassigned) [Compound 257, 2-methyl-6-(6-{3-[(1-methylcyclopropyl)amino]pyrrolidin-1-yl}-1,5-naphthyridin-2-yl)-1,3-benzoxazol-5-ol] | < 100 nM | < 100 nM | < 100 nM | < 100 nM | < 100 nM
Cn1cnc2cc(-c3ccc4nc(N5CCC(NC(C)(C)C)C5)ccc4n3)c(O)cc2c1=O (stereo not drawn) [Compound 167, 7-{6-[3-(tert-butylamino)pyrrolidin-1-yl]-1,5-naphthyridin-2-yl}-6-hydroxy-3-methylquinazolin-4-one] | > 10000 nM | > 10000 nM | > 10000 nM | > 10000 nM | > 10000 nM
Cc1cn2nc(-c3ccc4nc(N5CCC(NC(C)(C)C)C5)ccc4n3)cc2c(C)n1 (stereo not drawn) [Compound 187] | < 100 nM | < 100 nM | < 100 nM | < 100 nM | < 100 nM
COc1cc2nn(C)cc2cc1-c1ccc2c(F)c(C3CCNCC3)ccc2n1 [Compound 143, 5-fluoro-2-(6-methoxy-2-methylindazol-5-yl)-6-(piperidin-4-yl)quinoline] | > 10000 nM | > 10000 nM | > 10000 nM | > 10000 nM | > 10000 nM
CN1CCC12CCN(c1ccc3nc(-c4cc5cn(C)nc5cc4O)ccc3n1)C2 (stereo not drawn) [Compound 181, 2-methyl-5-(6-{1-methyl-1,6-diazaspiro[3.4]octan-6-yl}-1,5-naphthyridin-2-yl) indazol-6-ol] | 100 to 1000 nM | – | – | – | –
Cn1cc2cc(-c3ccc4nc(N5CCC(NC(C)(C)C)C5)ccc4n3)c(F)cc2n1 (stereo not drawn) [Compound 183] | > 10000 nM | – | – | – | –

Source: patent publication US20240002375A1, “2-(INDAZOL-5-YL)-6-(PIPERIDIN-4-YL)-1,7-NAPHTHYRIDINE DERIVATIVES AND RELATED COMPOUNDS AS MODULATORS FOR SPLICING NUCLEIC ACIDS AND FOR THE TRE” (REMIX THERAPEUTICS INC., priority 2020, published 2024)
